Reference: patent US12660819B2, “Herbicidal derivatives” (SYNGENTA CROP PROTECTION AG, priority 2020, dated 2026)

Experiments:
Format in all cases: in vivo
Setaria faberi (SETFA) [1] = assay: Pre-emergence Test (glasshouse, percentage damage to the plant); settings: 1000 g/ha unless otherwise stated, five-point scale
[2] = system: Abutilon theophrasti (ABUTH); assay: Post-emergence Test (glasshouse, percentage damage to the plant); settings: post-emergence spray, 1000 g/ha unless otherwise stated, evaluated after 13 days
Method in brief: (§1)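 Damage was rated 13 days after treatment and expressed on a five-point scale: 5=81-100%, 4=61-80%, 3=41-60%, 2=21-40%, 1=0-20%. Spray was applied at 1000 g/ha unless otherwise stated, from acetone/water (50:50) with 0.5% Tween 20, to sown pots.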

[3] = system: Ipomoea hederacea (IPOHE); assay: as above; settings: post-emergence spray, 1000 g/ha unless otherwise stated, evaluated after 13 days
Method in brief: (§2)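 Seeds sown in standard soil in a glasshouse (24/16 °C day/night, 14 h light, 65% humidity), then sprayed with an aqueous solution of the compound formulated in acetone/water 50:50 with 0.5% Tween 20 at 1000 g/ha unless otherwise stated. Percentage damage was scored after 13 days on a five-point scale (5=81-100%; 1=0-20%).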

Setaria faberi (SETFA) [4] = assay: as above; settings: post-emergence spray, 1000 g/ha unless otherwise stated, evaluated after 13 days
Method in brief: as §2

[5] = system: Echinochloa crus-galli (ECHCG); assay: as above; settings: post-emergence spray, 1000 g/ha unless otherwise stated, evaluated after 13 days
Method in brief: as §1

[6] = system: Amaranthus retoflexus (AMARE); assay: as above; settings: post-emergence spray, 1000 g/ha unless otherwise stated, evaluated after 13 days
Method in brief: as §1

Zea mays (ZEAMX) [7] = assay: as above; settings: post-emergence spray, 1000 g/ha unless otherwise stated, evaluated after 13 days
Method in brief: as §2

Zea mays (ZEAMX) [8] = assay: Pre-emergence Test (glasshouse, percentage damage to the plant); settings: 1000 g/ha unless otherwise stated, five-point scale
[9] = system: Ipomoea hederacea (IPOHE); assay: as above; settings: 1000 g/ha unless otherwise stated, five-point scale
[10] = system: Abutilon theophrasti (ABUTH); assay: as above; settings: 1000 g/ha unless otherwise stated, five-point scale
[11] = system: Echinochloa crus-galli (ECHCG); assay: as above; settings: 1000 g/ha unless otherwise stated, five-point scale
[12] = system: Amaranthus retoflexus (AMARE); assay: as above; settings: 1000 g/ha unless otherwise stated, five-point scale
[13] = system: Amaranthus palmeri (AMAPA); assay: Post-emergence Test (glasshouse, percentage damage to the plant); settings: post-emergence spray, 1000 g/ha unless otherwise stated, evaluated after 13 days
Method in brief: as §1

[14] = system: Amaranthus palmeri (AMAPA); assay: Pre-emergence Test (glasshouse, percentage damage to the plant); settings: 1000 g/ha unless otherwise stated, five-point scale

| Structure (SMILES) | percentage damage to the plant, SETFA (Setaria faberi (SETFA) [1]) | Post-emergence Test ABUTH, percentage damage to the plant (five-point scale) [2] | Post-emergence Test IPOHE, percentage damage to the plant (five-point scale) [3] | Post-emergence Test SETFA, percentage damage to the plant (five-point scale) (Setaria faberi (SETFA) [4]) | Post-emergence Test ECHCG, percentage damage to the plant (five-point scale) [5] | Post-emergence Test AMARE, percentage damage to the plant (five-point scale) [6] | Post-emergence Test ZEAMX, percentage damage to the plant (five-point scale) (Zea mays (ZEAMX) [7]) | percentage damage to the plant, ZEAMX (Zea mays (ZEAMX) [8]) | percentage damage to the plant, IPOHE [9] | percentage damage to the plant, ABUTH [10] | percentage damage to the plant, ECHCG [11] | percentage damage to the plant, AMARE [12] | Post-emergence Test AMAPA, percentage damage to the plant (five-point scale) [13] | percentage damage to the plant, AMAPA [14] |
| --- | --- | --- | --- | --- | --- | --- | --- | --- | --- | --- | --- | --- | --- | --- |
| CCn1c(C)c(-c2ccc(Cl)cc2C)c(=O)c(C(=O)O)c1-c1ccc(Cl)c(Cl)c1 [Compound 156, 5-(4-chloro-2-methyl-phenyl)-2-(3,4-dichlorophenyl)-1-ethyl-6-methyl-4-oxo-pyridine-3-carboxylic acid] | 4 (4=61-80%) | 4 (4=61-80%) | 4 (4=61-80%) | 4 (4=61-80%) | 4 (4=61-80%) | 3 (3=41-60%) | 4 (4=61-80%) | 0 | 1 (1=0-20%) | 2 (2=21-40%) | 5 (5=81-100%) | 1 (1=0-20%) | – | – |
| CCn1c(C)c(-c2ccc(F)cc2OC)c(=O)c(C(=O)O)c1-c1ccc(Cl)c(Cl)c1 [Compound 157, 2-(3,4-dichlorophenyl)-1-ethyl-5-(4-fluoro-2-methoxy-phenyl)-6-methyl-4-oxo-pyridine-3-carboxylic acid] | 5 (5=81-100%) | 4 (4=61-80%) | 4 (4=61-80%) | 4 (4=61-80%) | 4 (4=61-80%) | 1 (1=0-20%) | 4 (4=61-80%) | 3 (3=41-60%) | 2 (2=21-40%) | 4 (4=61-80%) | 4 (4=61-80%) | 0 | – | – |
| CCn1c(C)c(-c2ccc(Cl)cc2SC)c(=O)c(C(=O)O)c1-c1ccc(Cl)c(Cl)c1 [Compound 158, 5-(4-chloro-2-methylsulfanyl-phenyl)-2-(3,4-dichlorophenyl)-1-ethyl-6-methyl-4-oxo-pyridine-3-carboxylic acid] | 0 | – | 2 (2=21-40%) | 1 (1=0-20%) | – | 4 (4=61-80%) | 1 (1=0-20%) | 0 | 0 | – | 0 | 0 | 5 (5=81-100%) | 3 (3=41-60%) |
| CCn1c(C)c(-c2cccs2)c(=O)c(C(=O)O)c1-c1ccc(Cl)cc1 [Compound 165, 2-(4-chlorophenyl)-1-ethyl-6-methyl-4-oxo-5-(2-thienyl)pyridine-3-carboxylic acid] | 0 | 2 (2=21-40%) | 2 (2=21-40%) | 1 (1=0-20%) | 0 | 0 | 1 (1=0-20%) | 0 | 1 (1=0-20%) | 1 (1=0-20%) | 0 | 1 (1=0-20%) | – | – |
| CCn1c(C)c(-c2ccc(Cl)s2)c(=O)c(C(=O)O)c1-c1ccc(Cl)cc1 [Compound 166, 2-(4-chlorophenyl)-5-(5-chloro-2-thienyl)-1-ethyl-6-methyl-4-oxo-pyridine-3-carboxylic acid] | 0 | 3 (3=41-60%) | 1 (1=0-20%) | 3 (3=41-60%) | 2 (2=21-40%) | 2 (2=21-40%) | 1 (1=0-20%) | 0 | 1 (1=0-20%) | 1 (1=0-20%) | 0 | 1 (1=0-20%) | – | – |
| CCn1c(C)c(-c2cc(C)cs2)c(=O)c(C(=O)O)c1-c1ccc(Cl)cc1 [Compound 167, 2-(4-chlorophenyl)-1-ethyl-6-methyl-5-(4-methyl-2-thienyl)-4-oxo-pyridine-3-carboxylic acid] | 2 (2=21-40%) | 4 (4=61-80%) | 3 (3=41-60%) | 2 (2=21-40%) | 1 (1=0-20%) | 0 | 1 (1=0-20%) | 3 (3=41-60%) | 1 (1=0-20%) | 3 (3=41-60%) | 0 | 1 (1=0-20%) | – | – |
| CCn1c(C)c(-c2cnccn2)c(=O)c(C(=O)O)c1-c1ccc(Cl)cn1 [Compound 168, 2-(5-chloro-2-pyridyl)-1-ethyl-6-methyl-4-oxo-5-pyrazin-2-yl-pyridine-3-carboxylic acid] | 0 | 0 | 0 | 0 | 0 | 0 | 0 | 0 | 0 | 0 | 0 | 0 | – | – |
| CCn1c(C)c(-c2ccnnc2)c(=O)c(C(=O)O)c1-c1ccc(Cl)cc1 [Compound 180, 2-(4-chlorophenyl)-1-ethyl-6-methyl-4-oxo-5-pyridazin-4-yl-pyridine-3-carboxylic acid] | 0 | 0 | 2 (2=21-40%) | 0 | 0 | 0 | 0 | 0 | 0 | 0 | 0 | 0 | – | – |
